# Columns and labels:
# [1] = system: Caco-2 cells; experiment: Tight junction, Cyp1a1 and Nrf2 expression in Caco-2 cells; type: cell-based, human
# Procedure: (§1) Real-time quantitative PCR Total mRNA was extracted from mouse liver and intestine tissues using Trizol reagent (Life Technologies, Carlsbad, California, United States of America) according to the manufacturer's instruction and reverse-transcribed using cDNA Supermix (QuantaBio, Beverly, Massachusetts, United States of America). 18S and Gapdh were used as internal controls. Real-time qPCR was performed on an ABI 7300 fast real-time PCR thermocycler, where SYBR green PCR Master Mix (Applied Biosystems, Foster City, California, United States of America) was used. The relative gene expression was determined by the ΔΔCT method.
# Western Blotting. Protein was extracted from frozen intestine tissues. Western blotting was performed as described in (Shao et al. (2018) Intestinal HIF-1α deletion exacerbates alcoholic liver disease by inducing intestinal dysbiosis and barrier dysfunction. Journal of Hepatology 69:886-895). Antibodies used for western blotting for proteins ZO-1, Occludin, and Claudin-1 were from Cell Signaling (Danvers, Massachusetts, United States of America). Nrf-2, β-actin and Histone H3 antibodies were purchased from Abcam (Cambridge, Massachusetts, United States of America). For western blotting in Caco-2 cell derived NPs and LDNPs, CD 63 antibody from System Bioscience (Palo Alto, California, United States of America) was used.
# Cell culture. Mouse macrophages RAW 264.7 and the human intestinal epithelial cells Caco-2 were maintained in DMEM-high glucose and EMEM-high glucose (Corning; 10-009CV) respectively. The medium was supplemented with 10% fetal bovine serum, 1X penicillin-streptomycin solution (100U/ml penicillin, and 100 μg/ml streptomycin; Sigma Aldrich) in a humidified atmosphere (5% CO2, 95% air, 37° C.). Peritoneal macrophages and bone marrow-derived macrophages (BMDM) were isolated from mice as described in (Ying et al. (2013) Investigation of Macrophage Polarization Using Bone Marrow Derived Macrophages. Journal of Visualized Experiments 76:50323.). Isolated BMDM were then cultured in modified DMEM medium with macrophage colony-stimulating factor (M-CSF), which is a cytokine that directs cell differentiation. Cells were utilized for experimentation at 70-80% confluence. RAW264.7, peritoneal macrophages (PMs) and bone marrow-derived macrophages (BMDMs) were pretreated with LDNPs (0.2 μg/ml for 20 hours) and then treated with E. coli-derived lipopolysaccharides (LPS; O55:B5; Sigma) at 100 ng/mL concentration for 4 hours. Caco-2 cells at 70-80% confluence were treated with LDNPs (0.2 μg/ml), I3A (0.1 mM), the AhR inhibitor, CH-223191 (10 μM) or Nrf2 inhibitor, ML385 (5 μM) for 24 hours. Lamina propria lymphocytes (LPLs) were treated with LDNPs (0.2 μg/ml), I3A (0.1 mM) or the AhR inhibitor, CH223191 (10 μM) for 24 hours.
# Measurement of Cvp1A1 enzyme activity in vitro. Caco-2 cells (50,000 cells/well) were plated in a 48-well plate. Cells were then treated with LDNPs (0.2 μg/ml) or Indole-3-aldehyde (I3A, 0.1 mM) for 24 hours. After treatment, cells were washed to remove any residual LDNPs or I3A, then the wells were replenished with fresh medium containing Cyp1A1 substrate as per the protocol provided with a P450-GLO™ CYP1A1 Assay System brand kit (Promega Corporation, Madison, Wisconsin, United States of America) for 3 hours. After incubation, 25 μl of culture medium was removed from each well and transferred to a 96-well white opaque plate and 25 μl of luciferin detection reagent was added to initiate the luminescence reaction and plate was incubated at room temperature for 20 minutes. After incubation, luminescence was recorded using a luminometer. The data were reported as foldchange over vehicle treatment.
# [2] = system: AhR; experiment: ALD mouse model with AhR inhibitor CH223191 co-administration; type: in vivo
# Procedure: Animals and treatments. C57BL/6J mice (6-8 weeks of age) from Jackson Laboratory (Bar Harbor, Maine, United States of America) were maintained at 22° C. with a 12 hour light/dark cycle and initially had free access to a normal chow diet and tap water. Mice were then fed the Lieber DeCarli Diet containing 5% alcohol (w/v) (Alcohol-fed, AF) or isocaloric maltose dextrin (Pair-fed, PF). For the AF groups, mice were initially fed the control Lieber-DeCarli liquid diet (Bio-Serve, Flemington, New Jersey, United States of America) for 5 days to acclimate to the liquid diet. […] Mice in PF group were fed isocaloric maltose dextrin in substitution for alcohol in the liquid diet. On experimental Day 10, a bolus of EtOH (5 g/kg body weight) was given to AF mice by gavage 9 hours before harvesting, while mice in PF groups received a gavage of isocaloric maltose dextrin (10d+1b model). LDNPs were administered to mice in the last 3 days by daily gavage of 200 μL of LDNPs (50 μg protein content). AhR inhibitor, CH223191 (Sigma-Aldrich, St. Louis, Missouri, United States of America) was gavaged at […] in last three days. Control mice were gavaged with an equal volume of control vehicle (PBS).
# Whether the beneficial effects of LDNPs in ALD were mediated by the intestinal AhR pathway was tested by administrating the AhR inhibitor CH223191 to alcohol-fed mice. […] Importantly, the suppressive effect on hepatic fat by LDNP treatment was blunted when CH223191 was co-administered.
# [3] = system: lamina propria lymphocytes (LPLs); experiment: AhR signaling in lamina propria lymphocytes; type: cell-based, mouse; settings: AhR inhibitor 10 μM
# [4] = target: T1, EGFR (Mus musculus, UniProt Q01279); experiment: LDNPs-mediated EGFR activation in LPS-treated Raw264.7 cells with AG1478; type: cell-based; settings: AG1478 150 nM
# T1 construct: endogenous in cells; host or cells: Raw264.7
# Procedure: as §1
# Raw264.7 cells were pretreated with LDNPs (0.2 μg/ml) or the EGFR inhibitor AG1478 (150 nM) for 20 hours and then treated with LPS for 4 hours to induce inflammation response as depicted in the top panel of the FIG. 13A. The bottom panel of FIG. 13A is a representative western blot of phosphorylated EGFR (P-EGFR Tyr 1068), Total-EGFR, PI3K, phosphorylated Akt (P-Akt), total-Akt, phosphorylated NF-κB (P-NF-κB), and β-actin showing that expression of several of these proteins were modulated by LDNP treatment.
# [5] = Caco-2, LDNPs 0.2 μg/ml, I3A 0.1 mM, 24 hours
# [6] = alcohol-fed, CH223191 co-administered
# [7] = alcohol-fed, co-fed with CH223191
# T1 sequence (Q01279 25-1210): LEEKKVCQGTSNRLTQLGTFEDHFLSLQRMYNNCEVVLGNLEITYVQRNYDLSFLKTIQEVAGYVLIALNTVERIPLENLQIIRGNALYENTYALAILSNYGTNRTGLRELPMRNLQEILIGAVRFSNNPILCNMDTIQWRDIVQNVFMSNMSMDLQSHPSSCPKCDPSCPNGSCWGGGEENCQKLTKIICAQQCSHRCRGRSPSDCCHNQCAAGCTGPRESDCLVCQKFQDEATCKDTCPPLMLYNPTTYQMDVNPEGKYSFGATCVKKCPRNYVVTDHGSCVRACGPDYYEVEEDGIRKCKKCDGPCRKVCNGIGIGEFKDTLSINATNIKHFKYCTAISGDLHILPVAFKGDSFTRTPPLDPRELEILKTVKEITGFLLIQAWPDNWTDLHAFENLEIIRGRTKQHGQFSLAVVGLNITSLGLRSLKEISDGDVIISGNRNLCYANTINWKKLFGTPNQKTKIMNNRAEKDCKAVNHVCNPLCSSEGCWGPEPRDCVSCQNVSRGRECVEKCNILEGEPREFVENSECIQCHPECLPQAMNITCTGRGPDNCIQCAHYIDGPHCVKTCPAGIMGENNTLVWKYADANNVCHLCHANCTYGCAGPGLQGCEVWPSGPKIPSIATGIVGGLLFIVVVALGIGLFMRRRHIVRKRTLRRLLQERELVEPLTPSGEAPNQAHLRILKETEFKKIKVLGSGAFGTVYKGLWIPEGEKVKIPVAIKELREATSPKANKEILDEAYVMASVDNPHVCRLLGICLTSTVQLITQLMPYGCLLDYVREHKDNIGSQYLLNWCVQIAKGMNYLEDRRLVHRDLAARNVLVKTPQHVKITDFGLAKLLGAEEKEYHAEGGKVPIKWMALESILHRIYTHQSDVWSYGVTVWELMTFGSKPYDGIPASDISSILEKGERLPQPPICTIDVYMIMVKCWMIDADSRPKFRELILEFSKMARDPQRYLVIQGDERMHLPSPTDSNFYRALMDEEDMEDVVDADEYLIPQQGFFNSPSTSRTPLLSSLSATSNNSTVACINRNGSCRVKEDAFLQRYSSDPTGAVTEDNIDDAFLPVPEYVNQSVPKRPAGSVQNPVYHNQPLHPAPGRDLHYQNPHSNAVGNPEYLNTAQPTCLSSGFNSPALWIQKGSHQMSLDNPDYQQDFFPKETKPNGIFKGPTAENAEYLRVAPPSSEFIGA
structure (smiles),measurement,setting,value
Cc1ccccc1C(=O)N1CCc2cc(-c3nc(NC(=O)Cc4ccc5c(c4)OCO5)sc3C)ccc21 [ML385],LDNP-induced Cyp1a1 activity,[1],not
same,LDNP-induced Cyp1a1 mRNA expression,[1],blocked
same,LDNP-induced Nrf2 mRNA expression,[1],completely inhibited
same,LDNP-induced Nrf2 protein expression,[1],completely inhibited
"O=Cc1c[nH]c2ccccc12 [I3A, indole-3-aldehyde]",protein expression of tight junction proteins,"[1]; Caco-2, LDNPs 0.2 μg/ml, I3A 0.1 mM",increased
same,Cyp1a1 activity,[1]; [5],markedly increased
same,Cyp1a1 mRNA expression,[1]; [5],markedly increased
Cc1ccccc1N=Nc1ccc(NC(=O)c2ccnn2C)c(C)c1 [CH223191],ileum Nqo1 mRNA expression,"[2]; AF mice, agent alone",reduced
same,ileum Nrf2 mRNA expression,"[2]; AF mice, agent alone",reduced
same,LDNP-induced increase of IL-22 protein,[2]; [6],completely inhibited
same,LDNP-induced increase of Il22 mRNA,[2]; [6],completely inhibited
same,suppressive effect of LDNP treatment on hepatic fat,[2]; [6],blunted
same,upregulation of Reg3g by LDNPs,[2]; [6],blocked
same,ileum Cyp1a1 mRNA expression,"[2]; alcohol-fed, LDNPs gavaged with the inhibitor",no change
same,IL-22 protein expression,"[2]; alcohol-fed, agent alone",reduced
same,hepatic bacteria load,"[2]; alcohol-fed, agent alone",significantly increased
same,hepatic fat accumulation,"[2]; alcohol-fed, agent alone",significantly increased
same,ileum Cyp1a1 mRNA expression,"[2]; alcohol-fed, agent alone",reduced
same,ileum Il22 mRNA expression,"[2]; alcohol-fed, agent alone",reduced
same,ileum Reg3g mRNA expression,"[2]; alcohol-fed, agent alone",reduced
same,serum ALT,"[2]; alcohol-fed, agent alone",slightly increased
same,serum AST,"[2]; alcohol-fed, agent alone",slightly increased
same,effects of LDNPs on serum ALT,[2]; [7],blocked
same,effects of LDNPs on serum AST,[2]; [7],blocked
same,effect of LDNPs on hepatic bacteria load,"[2]; alcohol-fed, inhibitor co-administered",blocked
same,LDNPs-induced Cyp1a1 mRNA expression,[3],completely inhibited
same,LDNPs-induced Il22 mRNA expression,[3],completely inhibited
same,LDNPs-induced upregulation of IL-22 protein,[3],completely inhibited
same,LDNPs-induced Cyp1a1 mRNA expression,[3]; listed as CH229131,blocked
same,LDNPs-induced Il22 mRNA expression,[3]; listed as CH229131,blocked
same,I3A-induced Cyp1a1 activity,[1],blocked
same,I3A-induced Cyp1a1 mRNA expression,[1],blocked
same,LDNP-induced Cyp1a1 activity,[1],blocked
same,LDNP-induced Cyp1a1 mRNA expression,[1],blocked
same,LDNP-induced Nrf2 mRNA expression,[1],blocked
same,LDNP-induced Nrf2 protein expression,[1],blocked
COc1cc2ncnc(Nc3cccc(Cl)c3)c2cc1OC [AG1478],LDNP-mediated reduction of IL-1β mRNA,[4],inhibited
same,LDNP-mediated reduction of TNF-α mRNA,[4],inhibited

# Source: patent publication US20240009256A1, “USE OF PROBIOTIC BACTERIUM-DERIVED EXTRACELLULAR MICRO- AND/OR NANOPARTICLES FOR THE TREATMENT OF DISEASE” (University of Louisville Research Foundation, Inc., priority 2020, published 2024)
